According to patent US8653046B2, “Controlling transgene expression across the skin” (ETH Zurich, priority 2009, dated 2014):

How the values were obtained:
TtgA1 (TtgR-VP16) [1] = target: T1, TtgA1 (TtgR-VP16) (Pseudomonas putida, UniProt Q9AIU0); assay: Time-delayed induction of SEAP production of CHO-PEACE8 in bioreactor; assay type: cell-based; set-up: expressed in transfected cells; host or cells: CHO-K1 (transient pMG11 or pMG13); also HEK-293, BHK-21, COS-7, HaCaT, HT-1080, NIH/3T3, primary human fibroblasts and keratinocytes; conditions: 1 L bioreactor, start doses 60, 80 or 100 μM phloretin
Procedure: 2×10^3 cells/mL CHO-PEACE8 are cultivated in a bioreactor containing 1 L culture medium supplemented with either 60, 80 or 100 μM phloretin and SEAP production is profiled for 211 h. Owing to a defined phloretin degradation profile in culture and a precise induction threshold of 40 μM phloretin, the onset of SEAP production can be programmed to occur at a very precise point in time by defining the cell density and the phloretin concentration at production start.
Since phloretin is a non-toxic fruit component, it is an ideal product gene inducer for biopharmaceutical manufacturing scenarios, which require precise timing or dosing of difficult-to-express protein pharmaceuticals. Also, since phloretin has a determined half-live of 70 h in mammalian cell culture systems any production culture can be programmed to start product gene expression at a predefined point in time as phloretin concentrations drop below a repressing threshold level. A 1 L BioWave® bioreactor is inoculated with 2×10^3 CHO-PEACE8 and different transgene-repressing phloretin doses of 60, 80 or 100 μM. While CHO-PEACE8 grows exponentially from the start of the bioprocess, SEAP production gradually increases once phloretin is degraded to non-repressive levels (40 μM; FIG. 8). […]

TtgA3 (TtgR-E2F4) = assay: PEACE: SEAP expression after transient co-transfection of pMG10 and pMG19 (PSV40-TtgA3-pA); assay type: cell-based, Pseudomonas putida DOT-T1E; conditions: 48 h
Source text: Three different transactivators are designed, harboring either the VP16 (TtgA1; pMG11, TtgR-VP16) (Triezenberg S. J. et al., loc. cit.), the p65 (TtgA2; pMG18, TtgR-p65) (Urlinger S., et al., 2000, Gene 247(1-2):103-110) or the human E2F4 (TtgA3; pMG19, TtgR-E2F4) (Akagi K., Kanai M., Saya H., Kozu T., Berns A., 2001, Nucleic Acids Res 29(4):e23) transactivation domains. pMG11, pMG18 or pMG19 are co-transfected with pMG10 (PTtgR1-SEAP-pA) into CHO-K1, HEK-293 as well as primary human fibroblasts and keratinocytes, and SEAP expression is profiled after 48 h of cultivation in the presence or absence of 50 μM phloretin. […] All transactivators mediate similar basal expression levels when phloretin is […] in the medium, but due to their cell-type specificity and graded maximum transcription-initiation capacities, the three transactivators offer a selection of defined expression windows.

[2] = tested on: microencapsulated CHO-PEACE8 implants; assay: Transdermal phloretin control of SEAP from microencapsulated CHO-PEACE8 implanted subcutaneously in mice; assay type: in vivo, female OF1 mice; conditions: vaseline-based skin lotion 200 μL, 0-42 mg phloretin, every day; 72 h after implantation
Procedure: (A) Microencapsulated CHO-PEACE8 are implanted subcutaneously into female OF1 mice (2×10^6 cells/mouse). 200 μL of a cream containing different amounts of phloretin (0, 5.25, 10.5, 21 and 42 mg) is applied to a shaved skin area near the implant site. SEAP serum levels are quantified 72 h post implantation.
CHO-PEACE8 is microencapsulated in coherent alginate-PLL-alginate capsules and implanted subcutaneously into mice. The back of treated mice is partially shaved and vaseline-based skin lotions (200 μL) containing different amounts of phloretin (0-42 mg) are put on every day. […]
CHO-PEACE8 and CHO-SEAP18 (Fluri D. A., Kemmer C., Daoud-El Baba M., Fussenegger M., 2008, J Control Release 131(3):211-219) are encapsulated in alginate-poly-(L-lysine)-alginate beads (400 μm; 200 cells/capsule) using an Inotech Encapsulator Research IE-50R (Recipharm, Basel, Switzerland) according to the manufacturer's instructions and the following parameters: 0.2 mm nozzle, 20 mL syringe at a flow rate of 405 units, nozzle vibration frequency of 1024 Hz and 900 V for bead dispersion. […] Thereafter, the mice are sacrificed, blood samples collected and SEAP levels are quantified in the serum which is isolated using microtainer SST tube according to the manufacturer's instructions (Beckton Dickinson, Plymouth, UK). […]

TtgA1 (TtgR-VP16) [3] = target: T1, TtgA1 (TtgR-VP16); assay: Autoregulated PEACE-controlled SEAP expression (pMG13) in CHO-K1; assay type: cell-based; set-up: expressed in transfected cells; host or cells: CHO-K1 (transient pMG11 or pMG13); also HEK-293, BHK-21, COS-7, HaCaT, HT-1080, NIH/3T3, primary human fibroblasts and keratinocytes; conditions: 50 μM phloretin, 48 h

T1 sequence (Q9AIU0 whole entry, added parts left off): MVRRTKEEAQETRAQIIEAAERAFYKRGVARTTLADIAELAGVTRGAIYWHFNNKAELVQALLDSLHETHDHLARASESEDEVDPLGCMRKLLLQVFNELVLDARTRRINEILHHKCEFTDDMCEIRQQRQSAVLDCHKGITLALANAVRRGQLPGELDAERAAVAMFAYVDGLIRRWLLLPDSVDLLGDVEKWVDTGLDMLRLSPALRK

Structure (SMILES): O=C(CCc1ccc(O)cc1)c1c(O)cc(O)cc1O [phloretin, 3-[4-hydroxyphenyl]-1-[2,4,6-trihydroxyphenyl]-1-propanone]
- induction threshold (non-repressive phloretin level) for SEAP production (TtgA1 (TtgR-VP16) [1]): 40 µM
- SEAP Production (TtgA3 (TtgR-E2F4); CHO-K1, phloretin 50 μM): 0.26 ± 0.08 U/L
- SEAP Production (TtgA3 (TtgR-E2F4); HEK-293, phloretin 50 μM): 0.2 ± 0.016 U/L
- SEAP Production (TtgA3 (TtgR-E2F4); HaCaT, phloretin 50 μM): 0.5 ± 0.05 U/L
- SEAP serum levels in treated mice [2]: phloretin-dependent dose-response characteristics
- SEAP expression (autoregulated circuit) (TtgA1 (TtgR-VP16) [3]): completely repressed
